Assay results from patent publication US20240277658A1, “NLRP3 ACTIVATORS FOR USE IN THE TREATMENT OF INFECTIOUS DISEASES OR CANCER BY ACTIVATING NLRP3 INFLAMMASOME” (ALBERT-LUDWIGS-UNIVERSITÄT FREIBURG, priority 2020, published 2024).
Where two headings read alike, the source gives them in different places.

Legend:
NLRP3 = assay: Inflammasome stimulation (IL-1β, LDH release) in BMDCs from NLRP3 knockout or ASC knockout mice; format: cell-based, mouse; details: IL-1β and LDH release
Method: (§1) For canonical inflammasome activation BMDCs after 7-9 days of differentiation were harvested and counted with a Neubauer Chamber (Hecht Assistant) and the concentration was set to 1 Mio cells ml^−1. 100 μl cell suspension per well were seeded in 96-well plates. The cells were primed with 50 ng ml^−1 E. coli K12 ultra-pure LPS for 3 hours and subsequently treated with canonical inflammasome activators or experimental compounds for 3 hours if not indicated differently (incubation time FIG. 4D, 5, 7, 8, 11, 13-18: 3 h, FIG. 12: 4 h). Concentrations of the stimuli were as follows if not indicated differently: 5 μM nigericin, 100 μM imiquimod (also known as R837), 100 μM CL097, 100 μM R848, […] poly(dA:dT), 300 μg ml^−1 MSU. If an inhibitor was used before stimuli treatment, the inhibitor was added after 2.5 hours of priming and it was incubated for 30 minutes before inflammasome activation. Inhibitors were used as follows: 3 μM MCC950, 45 mM KCl, 30 μM ebselen (2-Phenyl-1,2-benzoselenazol-3-one), 5 μM cytochalasin D (see FIGS. 8, 11, 12 and 17).
(§2) All inflammasome stimulations were performed in three technical replicates for each condition. Lytic cell death was determined via LDH release (see FIGS. 8, 13-16 and 18), cytokines quantified in cell-free supernatants via ELISA (see FIGS. 4D, 7-9, 11-19) and cell lysates and supernatants analyzed via immunoblotting (see FIGS. 5A and 5B) as previously described in detail (Gross, Olaf, 2012 “Measuring the inflammasome”, Methods in molecular biology, Clifton, N.J., 844, pp. 199-222. Schneider, Katharina S.; Thomas, Christina J.; Groß, Olaf, 2013, “Inflammasome activation and inhibition in primary murine bone marrow-derived cells, and assays for IL-1α, IL-1β, and caspase-1”, Methods in molecular biology, Clifton, N.J., 1040, pp. 117-135).

BMDCs = assay: LDH release (lytic cell death, pyroptosis) from LPS-primed BMDCs; format: cell-based, mouse; details: for Average (% positive control): LDH release; for cytotoxicity at 10 µM / cytotoxicity at 20 µM / cytotoxicity at 25 µM / cytotoxicity at 50 µM / cytotoxicity at 18.75 µM: Mus musculus, BMDC; for cytotoxicity at 50 µM: LPS-primed BMDCs
Procedure, shortened: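 LDH released into medium, detected colorimetrically, served as the pyroptosis read-out in triplicate. LPS-primed (50 ng ml^−1, 3 h) murine bone marrow-derived dendritic cells received test compounds, typically 50 μM, or nigericin (5 μM), R837 or CL097 (100 μM) for 3 hours.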

NLRP3 inflammasome = target: T1, NLRP3 inflammasome (Mus musculus, UniProt Q8R4B8); assay: Inflammasome stimulation of BMDCs after pre-incubation with inhibitors (MCC950, KCl, ebselen, cytochalasin D); format: cell-based
T1 construct: endogenous in cells; host or cells: primary mouse bone marrow-derived dendritic cells (BMDCs), LPS-primed
T1 sequence (Q8R4B8 whole entry): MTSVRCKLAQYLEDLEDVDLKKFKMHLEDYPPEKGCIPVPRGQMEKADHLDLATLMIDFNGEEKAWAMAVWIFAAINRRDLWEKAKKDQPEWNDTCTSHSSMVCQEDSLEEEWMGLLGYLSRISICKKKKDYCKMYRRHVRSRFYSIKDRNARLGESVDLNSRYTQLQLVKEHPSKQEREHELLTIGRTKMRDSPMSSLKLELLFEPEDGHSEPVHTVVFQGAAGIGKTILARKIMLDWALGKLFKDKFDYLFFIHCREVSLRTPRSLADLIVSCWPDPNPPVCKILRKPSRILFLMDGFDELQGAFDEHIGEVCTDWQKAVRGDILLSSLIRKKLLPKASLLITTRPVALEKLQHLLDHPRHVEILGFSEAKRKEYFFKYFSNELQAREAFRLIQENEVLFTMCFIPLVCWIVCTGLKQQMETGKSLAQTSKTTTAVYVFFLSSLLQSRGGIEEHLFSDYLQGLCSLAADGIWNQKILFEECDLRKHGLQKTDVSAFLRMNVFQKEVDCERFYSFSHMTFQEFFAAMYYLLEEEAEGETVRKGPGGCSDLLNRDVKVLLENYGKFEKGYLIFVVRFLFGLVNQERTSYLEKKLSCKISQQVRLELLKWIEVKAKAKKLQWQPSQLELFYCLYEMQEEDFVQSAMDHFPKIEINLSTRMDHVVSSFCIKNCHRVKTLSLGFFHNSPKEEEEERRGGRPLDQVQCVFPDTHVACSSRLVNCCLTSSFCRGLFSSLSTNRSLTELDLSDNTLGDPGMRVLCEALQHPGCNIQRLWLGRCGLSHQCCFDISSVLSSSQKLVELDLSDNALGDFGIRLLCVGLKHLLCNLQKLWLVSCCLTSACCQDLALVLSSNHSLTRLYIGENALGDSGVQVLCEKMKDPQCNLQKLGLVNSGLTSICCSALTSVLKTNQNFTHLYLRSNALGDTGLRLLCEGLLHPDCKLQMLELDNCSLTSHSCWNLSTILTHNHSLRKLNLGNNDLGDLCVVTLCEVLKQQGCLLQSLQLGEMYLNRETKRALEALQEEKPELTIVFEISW
Method: as §1, with “Inhibitors were used as follows: 3 μM MCC950, 45 mM KCl, 30 μM ebselen (2-Phenyl-1,2-benzoselenazol-3-one), 5 μM cytochalasin D (see FIGS. 8, 11, 12 and 17).” left out
as §2

- dependence of NLRP3 inflammasome activation on potassium efflux from the cell (NLRP3 inflammasome; 50 mM extracellular KCl, FIGS. 11 and 17): independently of potassium efflux
- effect of the endocytosis inhibitor cytochalasin D on NLRP3 activation (NLRP3 inflammasome; LPS-primed wild-type BMDCs, FIG. 12): has no effect
- effect of the NLRP3-specific inhibitor MCC950 on inflammasome activation by the compound (NLRP3 inflammasome; wild-type BMDCs, compound 50 μM, FIG. 8): completely suppresses
SMILES: O=C(Nc1ccccc1)Nc1ccc2ncccc2c1 [EN22, 1-phenyl-3-(quinolin-6-yl)urea]
- characteristics of inflammasome activation in cells isolated from NLRP3 knockout mice (NLRP3): do not occur
- Average (% positive control) (BMDCs; 10 μM, positive control EN22 10 μM): 100.000 % positive control
- Average (% positive control) (BMDCs; 20 μM, positive control EN22 20 μM): 100.000 % positive control
- Average (% positive control) (BMDCs; 25 μM, positive control EN22 25 μM): 100.000 % positive control
- Average (% positive control) (BMDCs; compound 50 μM, positive control nigericin 5 μM): 95.180 % positive control
- cytotoxicity at 10 µM (BMDCs; 10 μM, individual replicate values, read-out: LDH release (% of max.)): 78.1%
- cytotoxicity at 10 µM (BMDCs; 10 μM, read-out: Average LDH release (% of max.)): 76.8%
- cytotoxicity at 20 µM (BMDCs; 20 μM, individual replicate values, read-out: LDH release (% of max.)): 49.4%
- cytotoxicity at 20 µM (BMDCs; 20 μM, read-out: Average LDH release (% of max.)): 53.3%
- cytotoxicity at 25 µM (BMDCs; 25 μM, EN11 series table, read-out: Average LDH release (% of max.)): 50.8%
- cytotoxicity at 25 µM (BMDCs; 25 μM, individual replicate values, EN11 series table, read-out: LDH release (% of max.)): 51.9%
- cytotoxicity at 50 µM (BMDCs; compound 50 μM, read-out: Average LDH release (% of max.)): 69.6%
- cytotoxicity at 25 µM (BMDCs; section 1.2, 25 μM, read-out: Average LDH release (% of max.)): 30%
- cytotoxicity at 25 µM (BMDCs; section 1.2, single replicates, 25 μM, read-out: LDH release (% of max.)): 29.6%
- cytotoxicity at 18.75 µM (BMDCs; section 1.4, 18.75 μM, read-out: Average LDH release (% of max.)): 71.3%
- cytotoxicity at 18.75 µM (BMDCs; section 1.4, single replicates, 18.75 μM, read-out: LDH release (% of max.)): 71.4%
- cytotoxicity at 50 µM (BMDCs; single replicates, compound 50 μM, read-out: LDH release (% of max.)): 59.4%
- Average (% positive control) (BMDCs; section 1.2, 25 μM, positive control EN22 25 μM): 100.000 % positive control
- Average (% positive control) (BMDCs; section 1.4, 18.75 μM, positive control EN22 18.75 μM): 100.000 % positive control
